Measured values from patent US9296723B2, “NAMPT inhibitors” (AbbVie Inc., priority 2012, dated 2016).

What was measured:
PC3 cells = assay: NAMPT Cell Proliferation Assay (Cell Titer Glo); assay type: cell-based; conditions: Homo sapiens, PC-3, 120 h, incubated 5 days, cell viability
Experimental: NAMPT Cell Proliferation Assay
PC3 cells were seeded in 96-well black plates (Corning #3904) at 500 cells/well in 90 µl of RPMI media containing 10% heat-inactivated FBS and incubated overnight at 37° C. and 5% CO2 to allow cells to attach to wells. The following day, test compounds were serially diluted in neat DMSO to 1000× final concentrations prior to dilution with RPMI media to 10× and 1% DMSO. Ten L of the 10× compounds were then transferred to wells containing cells to produce a dose response of 10-fold dilutions from […]. Cells were incubated for 5 days at 37° C. and 5% CO2, then cell viability was measured using Cell Titer Glo reagent (Promega #G7571). Percent inhibition values were calculated and fitted to a sigmoidal dose response curves using Assay Explorer software to determine IC50s.

NAMPT = NAMPT (Homo sapiens, UniProt P43490); assay: Time-Resolved Fluorescence Resonance Energy Transfer (TR-FRET) Binding Assay of NAMPT; conditions: 6.8 nM NAMPT, 200 nM probe, equilibrated 3 hours, no substrates
Experimental: Determination of the utility of compounds having Formula (I) as binders to and inhibitors of NAMPT was performed using Time-Resolved Fluorescence Resonance Energy Transfer (TR-FRET) binding assays.
Time-Resolved Fluorescence Resonance Energy Transfer (TR-FRET) Binding Assay of NAMPT
Six L were transferred to 384-well low-volume plates ([…] #3673). To this, 12 L of a 1.5× solution containing enzyme, probe and antibody were added. […] Reactions were equilibrated at room temperature for 3 hours prior to reading on an Envision multi-label plate reader (Perkin Elmer; Ex=337 nm, Em=520 and 495 nm). Time-resolved FRET ratios (Em520/Em495) were normalized to controls, plotted as a function of compound concentration and fit with the four-parameter logistic equation to determine IC50s.

Sequence of NAMPT (P43490 whole entry): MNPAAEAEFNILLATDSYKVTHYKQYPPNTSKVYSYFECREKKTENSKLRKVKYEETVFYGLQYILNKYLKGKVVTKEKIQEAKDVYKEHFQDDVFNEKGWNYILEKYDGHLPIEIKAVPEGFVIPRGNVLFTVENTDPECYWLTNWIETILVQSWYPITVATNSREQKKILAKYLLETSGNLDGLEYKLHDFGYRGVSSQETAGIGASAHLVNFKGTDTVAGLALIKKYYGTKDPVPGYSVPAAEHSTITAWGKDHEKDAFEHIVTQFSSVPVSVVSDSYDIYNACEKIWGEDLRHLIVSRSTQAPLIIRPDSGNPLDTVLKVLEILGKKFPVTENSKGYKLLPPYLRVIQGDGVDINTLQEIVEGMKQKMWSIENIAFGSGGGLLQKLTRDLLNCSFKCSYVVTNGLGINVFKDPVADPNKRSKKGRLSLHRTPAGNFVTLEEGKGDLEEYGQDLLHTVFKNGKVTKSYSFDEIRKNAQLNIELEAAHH

Compound	IC50 (PC3 cells) [nM]	IC50 (NAMPT) [nM]
CCCn1cc(-c2ccc(NC(=O)N3CC(c4cccnc4)C3)cc2)cn1 [Example 158, N-[4-(1-propyl-1H-pyrazol-4-yl)phenyl]-3-(pyridin-3-yl)azetidine-1-carboxamide]	36.5	26.3
CCC(C)CC(=O)N1CC[C@@H](Oc2ccc(NC(=O)N3CC(c4cccnc4)C3)cc2)C1 (stereo partly drawn) [Example 298, N-(4-{[(3R)-1-(3-methylpentanoyl)pyrrolidin-3-yl]oxy}phenyl)-3-(pyridin-3-yl)azetidine-1-carboxamide]	11.2	35.2
Cn1cccc1C(=O)N1CCC(c2ccc(NC(=O)N3CC(c4cccnc4)C3)cc2)C1 (stereo not shown) [Example 285, N-(4-{1-[(1-methyl-1H-pyrrol-2-yl)carbonyl]pyrrolidin-3-yl}phenyl)-3-(pyridin-3-yl)azetidine-1-carboxamide]	26.5	17.2
CCCC(=O)N1CC[C@@H](Oc2ccc(NC(=O)N3CC(c4cccnc4)C3)cc2)C1 [Example 87, N-(4-{[(3R)-1-butanoylpyrrolidin-3-yl]oxy}phenyl)-3-(pyridin-3-yl)azetidine-1-carboxamide]	6.04	19.8
CC1(C(=O)N2CC[C@@H](Oc3ccc(NC(=O)N4CC(c5cccnc5)C4)cc3)C2)CCCCC1 [Example 316, N-[4-({(3R)-1-[(1-methylcyclohexyl)carbonyl]pyrrolidin-3-yl}oxy)phenyl]-3-(pyridin-3-yl)azetidine-1-carboxamide]	17.3	13.6
O=C(CC(F)(F)F)N1CC[C@@H](Oc2ccc(NC(=O)N3CC(c4cccnc4)C3)cc2)C1 [Example 84, 3-(pyridin-3-yl)-N-(4-{[(3R)-1-(3,3,3-trifluoropropanoyl)pyrrolidin-3-yl]oxy}phenyl)azetidine-1-carboxamide]	22	59.4
O=C(CC1CC1)N1CCC(c2ccc(NC(=O)N3CC(c4cccnc4)C3)cc2)C1 (stereo not shown) [Example 69, N-{4-[1-(cyclopropylacetyl)pyrrolidin-3-yl]phenyl}-3-(pyridin-3-yl)azetidine-1-carboxamide]	61.3	44.8
O=C(CN1CCCC1)N1CCC(c2ccc(NC(=O)N3CC(c4cccnc4)C3)cc2)C1 (stereo not shown) [Example 265, 3-(pyridin-3-yl)-N-{4-[1-(pyrrolidin-1-ylacetyl)pyrrolidin-3-yl]phenyl}azetidine-1-carboxamide]	691	191
O=C(Nc1ccc(C2CCN(C(=O)[C@@H]3CCCO3)C2)cc1)N1CC(c2cccnc2)C1 (stereo partly drawn) [Example 66, 3-(pyridin-3-yl)-N-(4-{1-[(2S)-tetrahydrofuran-2-ylcarbonyl]pyrrolidin-3-yl}phenyl)azetidine-1-carboxamide]	82.2	86
CC(C)C(=O)N1CC[C@H](Oc2ccc(NC(=O)N3CC(c4cccnc4)C3)cc2)C1 [Example 89, N-(4-{[(3S)-1-(2-methylpropanoyl)pyrrolidin-3-yl]oxy}phenyl)-3-(pyridin-3-yl)azetidine-1-carboxamide]	180	227
CCCC(C)CN1CC(c2ccc(NC(=O)N3CC(c4cccnc4)C3)cc2)C1 (stereo not shown) [Example 249, N-{4-[1-(2-methylpentyl)azetidin-3-yl]phenyl}-3-(pyridin-3-yl)azetidine-1-carboxamide]	541	193
CC(C)C(=O)N1CCC(c2ccc(NC(=O)N3CC(c4cccnc4)C3)cc2)CC1 [Example 56, N-{4-[1-(2-methylpropanoyl)piperidin-4-yl]phenyl}-3-(pyridin-3-yl)azetidine-1-carboxamide]	8.83	27.4
O=C(Nc1ccc(O[C@H]2CCN(C(=O)c3ccccc3)C2)cc1)N1CC(c2cccnc2)C1 [Example 95, N-(4-{[(3S)-1-benzoylpyrrolidin-3-yl]oxy}phenyl)-3-(pyridin-3-yl)azetidine-1-carboxamide]	66.2	79.1
O=C(CCN1CCOCC1)N1CCC(c2ccc(NC(=O)N3CC(c4cccnc4)C3)cc2)C1 (stereo not shown) [Example 281, N-(4-{1-[3-(morpholin-4-yl)propanoyl]pyrrolidin-3-yl}phenyl)-3-(pyridin-3-yl)azetidine-1-carboxamide]	125	65.6
O=C(CC1CCOCC1)N1CCC(c2ccc(NC(=O)N3CC(c4cccnc4)C3)cc2)CC1 [Example 50, 3-(pyridin-3-yl)-N-{4-[1-(tetrahydro-2H-pyran-4-ylacetyl)piperidin-4-yl]phenyl}azetidine-1-carboxamide]	8.57	15.6
O=C(Nc1ccc(C2CCN(C(=O)C3CCOC3)C2)cc1)N1CC(c2cccnc2)C1 (stereo not shown) [Example 68, 3-(pyridin-3-yl)-N-{4-[1-(tetrahydrofuran-3-ylcarbonyl)pyrrolidin-3-yl]phenyl}azetidine-1-carboxamide]	59.1	86.2
CN(C)CCC(=O)N1CC[C@@H](Oc2ccc(NC(=O)N3CC(c4cccnc4)C3)cc2)C1 [Example 306, N-(4-{[(3R)-1-(N,N-dimethyl-beta-alanyl)pyrrolidin-3-yl]oxy}phenyl)-3-(pyridin-3-yl)azetidine-1-carboxamide]	298	507
O=C(Nc1ccc(OC2CN(C(=O)c3ccoc3)C2)cc1)N1CC(c2cccnc2)C1 [Example 151, N-(4-{[1-(furan-3-ylcarbonyl)azetidin-3-yl]oxy}phenyl)-3-(pyridin-3-yl)azetidine-1-carboxamide]	15.4	20.8
O=C(Nc1ccc(O[C@@H]2CCN(C(=O)c3ccccc3)C2)cc1)N1CC(c2cccnc2)C1 [Example 83, N-(4-{[(3R)-1-benzoylpyrrolidin-3-yl]oxy}phenyl)-3-(pyridin-3-yl)azetidine-1-carboxamide]	6.85	7.22
CC(C)(O)C(=O)N1CC[C@@H](Oc2ccc(NC(=O)N3CC(c4cccnc4)C3)cc2)C1 [Example 82, N-(4-{[(3R)-1-(2-hydroxy-2-methylpropanoyl)pyrrolidin-3-yl]oxy}phenyl)-3-(pyridin-3-yl)azetidine-1-carboxamide]	7.24	9.73
O=C1CC[C@@H](C(=O)N2CCC(c3ccc(NC(=O)N4CC(c5cccnc5)C4)cc3)C2)N1 (stereo partly drawn) [Example 273, N-{4-[1-(5-oxo-L-prolyl)pyrrolidin-3-yl]phenyl}-3-(pyridin-3-yl)azetidine-1-carboxamide]	7270	203
O=C(CC(F)(F)F)N1CC[C@H](Oc2ccc(NC(=O)N3CC(c4cccnc4)C3)cc2)C1 [Example 96, 3-(pyridin-3-yl)-N-(4-{[(3S)-1-(3,3,3-trifluoropropanoyl)pyrrolidin-3-yl]oxy}phenyl)azetidine-1-carboxamide]	171	265
O=C(CC1CCOCC1)N1CC[C@@H](Oc2ccc(NC(=O)N3CC(c4cccnc4)C3)cc2)C1 [Example 76, 3-(pyridin-3-yl)-N-(4-{[(3R)-1-(tetrahydro-2H-pyran-4-ylacetyl)pyrrolidin-3-yl]oxy}phenyl)azetidine-1-carboxamide]	22.4	83.6
O=C(Nc1ccc(O[C@H]2CCN(C(=O)C3CC3)C2)cc1)N1CC(c2cccnc2)C1 [Example 97, N-(4-{[(3S)-1-(cyclopropylcarbonyl)pyrrolidin-3-yl]oxy}phenyl)-3-(pyridin-3-yl)azetidine-1-carboxamide]	76.7	168
COCCOCC(=O)N1CCC(c2ccc(NC(=O)N3CC(c4cccnc4)C3)cc2)C1 (stereo not shown) [Example 280, N-(4-{1-[(2-methoxyethoxy)acetyl]pyrrolidin-3-yl}phenyl)-3-(pyridin-3-yl)azetidine-1-carboxamide]	114	101
O=C(Nc1ccc(C2CCN(C(=O)c3ccco3)C2)cc1)N1CC(c2cccnc2)C1 (stereo not shown) [Example 286, N-{4-[1-(furan-2-ylcarbonyl)pyrrolidin-3-yl]phenyl}-3-(pyridin-3-yl)azetidine-1-carboxamide]	7.66	9.76
CC(C)C(=O)N1CCC(c2ccc(NC(=O)N3CC(c4cccnc4)C3)cc2)C1 (stereo not shown) [Example 65, N-{4-[1-(2-methylpropanoyl)pyrrolidin-3-yl]phenyl}-3-(pyridin-3-yl)azetidine-1-carboxamide]	62.2	56.6
O=C(Nc1ccc(O[C@H]2CCN(C(=O)C3CCOC3)C2)cc1)N1CC(c2cccnc2)C1 (stereo partly drawn) [Example 92, 3-(pyridin-3-yl)-N-(4-{[(3S)-1-(tetrahydrofuran-3-ylcarbonyl)pyrrolidin-3-yl]oxy}phenyl)azetidine-1-carboxamide]	608	387
O=C(Nc1ccc(O[C@@H]2CCN(C(=O)C3CCOC3)C2)cc1)N1CC(c2cccnc2)C1 (stereo partly drawn) [Example 80, 3-(pyridin-3-yl)-N-(4-{[(3R)-1-(tetrahydrofuran-3-ylcarbonyl)pyrrolidin-3-yl]oxy}phenyl)azetidine-1-carboxamide]	63.2	122
